What was measured:
[1] = target: T1, Mcl-1 protein (residues 171-323) (Homo sapiens, UniProt Q07820); assay: Inhibition of Mcl-1 by fluorescence polarization (FP) competitive binding assay with FAM-Bid tracer; settings: 2 nM FAM-Bid, 20 nM Mcl-1, 30 min
T1 construct: Tag-free Mcl-1 protein (residues 171-323) was used in the FP assay
In short: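 Ten-point compound titrations compete against 2 nM fluorescein-Bid for 20 nM Mcl-1 (171-323, untagged). Incubation 30 min RT in PBS buffer with BGG and Triton, 5% DMSO final. mP reduction fitted by sigmoidal nonlinear regression for IC50.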

OPM-2 cells = assay: Cell viability assay (OPM-2 cells), CCK-8; format: cell-based; settings: Homo sapiens, OPM-2, 24 h, 5% FBS
In short: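 Viability read by CCK-8 absorbance (450 nm, 4 h reagent incubation) after 24 h compound exposure of 20000 OPM-2 cells per well at 37 °C. IC50 fitted by nonlinear regression on vehicle-normalized signal.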

NCI-H929 cells = assay: Cell viability assay (NCI-H929 cells), CCK-8; format: cell-based; settings: Homo sapiens, NCI-H929, 24 h, 5% FBS
In short: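 Viability of NCI-H929 cells was measured using the Cell Counting Kit-8. After 24 hrs of compound exposure, 10 μL of CCK-8 solution per well was incubated for 1-4 hours, and absorbance was read at 450 nm on a BioTek Synergy 1MF. Readings were normalized to vehicle (DMSO) cells, and IC50 values were derived by nonlinear regression in GraphPad Prism 6.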

T1 sequence (Q07820 171-323): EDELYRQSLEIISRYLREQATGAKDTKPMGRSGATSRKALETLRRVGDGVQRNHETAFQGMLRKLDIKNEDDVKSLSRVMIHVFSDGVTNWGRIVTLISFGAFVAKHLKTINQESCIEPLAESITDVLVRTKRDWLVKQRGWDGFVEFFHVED

Structure (SMILES)	IC50 [1]	IC50 (NCI-H929 cells)	IC50 (OPM-2 cells)
CO[C@@]1(CN2CCN3CCOC[C@@H]3C2)C2=C[C@@H](C2)[C@H](C)[C@@H](C)S(=O)(=O)NC(=O)c2ccc3c(c2)N(C[C@@H]2CC[C@H]21)C[C@@]1(CCCc2c1ccc(Cl)c2F)CO3 [compound 51, (1S,11′R,12′S,13′R,16′R,16a′R,18a′R,E)-6-chloro-5-fluoro-16′-(((S)-hexahydropyrazino[2,1-c][1,4]oxazin-8(1H)-yl)methyl)-16′-methoxy-11′,12′-dimethyl-3,4,12′,13′,16′,16a′,17′,18′,18a′,19′-decahydro-1′H,2H,3′H,11′H-spiro[naphthalene-1,2′-[5,7]etheno[13,15]methanocyclobuta[i][1,4]oxazepino[3,4-f][1]thia[2,7]diazacyclohexadecin]-8′(9′H)-one 10′,10′-dioxide]	7.4 nM	6 nM	14 nM
CNC[C@]1(OC)C2=C[C@@H](C2)[C@H](C)[C@@H](C)S(=O)(=O)NC(=O)c2ccc3c(c2)N(C[C@@H]2CC[C@H]21)C[C@@]1(CCCc2c1ccc(Cl)c2F)CO3 [compound 52, (1S,11′R,12′S,13′R,16′R,16a′R,18a′R,E)-6-chloro-5-fluoro-16′-methoxy-11′,12′-dimethyl-16′-((methylamino)methyl)-3,4,12′,13′,16′,16a′,17′,18′,18a′,19′-decahydro-1′H,2H,3′H,11′H-spiro[naphthalene-1,2′-[5,7]etheno[13,15]methanocyclobuta[i][1,4]oxazepino[3,4-f][1]thia[2,7]diazacyclohexadecin]-8′(9′H)-one 10′,10′-dioxide]	7 nM	19 nM	23 nM
CO[C@@]1(CN(C)C(C)=O)C2=C[C@@H](C2)[C@H](C)[C@@H](C)S(=O)(=O)NC(=O)c2ccc3c(c2)N(C[C@@H]2CC[C@H]21)C[C@@]1(CCCc2c1ccc(Cl)c2F)CO3 [compound 53, N-(((1S,11′R,12′S,13′R,16′R,16a′R,18a′R,E)-6-chloro-5-fluoro-16′-methoxy-11′,12′-dimethyl-10′,10′-dioxido-8′-oxo-3,4,8′,9′,12′,13′,16′,16a′,17′,18′,18a′,19′-dodecahydro-1′H,2H,3′H,11′H-spiro[naphthalene-1,2′-[5,7]etheno[13,15]methanocyclobuta[i][1,4]oxazepino[3,4-f][1]thia[2,7]diazacyclohexadecin]-16′-yl)methyl)-N-methylacetamide]	5.7 nM	49 nM	57 nM
CO[C@@]1(CN2CCN3CCOC[C@@H]3C2)C2=C[C@@H](C2)[C@H](C)[C@@H](C)S(=O)(=O)NC(=O)c2ccc3c(n2)N(C[C@@H]2CC[C@H]21)C[C@@]1(CCCc2c1ccc(Cl)c2F)CO3 [compound 54, (1S,11′R,12′S,13′R,16′R,16a′R,18a′R,E)-6-chloro-5-fluoro-16′-(((S)-hexahydropyrazino[2,1-c][1,4]oxazin-8(1H)-yl)methyl)-16′-methoxy-11′,12′-dimethyl-3,4,12′,13′,16′,16a′,17′,18′,18a′,19′-decahydro-1′H,2H,3′H, 11′H-spiro[naphthalene-1,2′-[5,7]etheno[13,15]methanocyclobuta[i][1,4]oxazepino[3,4-f][1]thia[2,5,7]triazacyclohexadecin]-8′(9′H)-one 10′,10′-dioxide]	15 nM	4.9 nM	56 nM
C[C@@H]1[C@@H](C)S(=O)(=O)NC(=O)c2ccc3c(c2)N(C[C@@H]2CC[C@H]2[C@@H](OCCN2CCOCC2)C2=C[C@H]1C2)C[C@@]1(CCCc2c1ccc(Cl)c2F)CO3 [compound 59, (1S,11′R,12′S,13′R,16′R,16a′R,18a′R,E)-6-chloro-5-fluoro-11′,12′-dimethyl-16′-(2-morpholinoethoxy)-3,4,12′,13′,16′,16a′,17′,18′,18a′,19′-decahydro-1′H,2H,3′H,11′H-spiro[naphthalene-1,2′-[5,7]etheno[13,15]methanocyclobuta[i][1,4]oxazepino[3,4-f][1]thia[2,7]diazacyclohexadecin]-8′(9′H)-one 10′,10′-dioxide]	13 nM	4.1 nM	37 nM
C[C@@H]1[C@@H](C)S(=O)(=O)NC(=O)c2ccc3c(c2)N(C[C@@H]2CC[C@H]2[C@@H](OCCS(C)(=O)=O)C2=C[C@H]1C2)C[C@@]1(CCCc2c1ccc(Cl)c2F)CO3 [compound 61, (1S,11′R,12′S,13′R,16′R,16a′R,18a′R,E)-6-chloro-5-fluoro-11′,12′-dimethyl-16′-(2-(methylsulfonyl)ethoxy)-3,4,12′,13′,16′,16a′,17′,18′,18a′,19′-decahydro-1′H,2H,3′H,11′H-spiro[naphthalene-1,2′-[5,7]etheno[13,15]methanocyclobuta[i][1,4]oxazepino[3,4-f][1]thia[2,7]diazacyclohexadecin]-8′(9′H)-one 10′,10′-dioxide]	10 nM	28 nM	75 nM
C[C@@H]1[C@@H](C)S(=O)(=O)NC(=O)c2ccc3c(c2)N(C[C@@H]2CC[C@H]2[C@@H](OCc2ncccn2)C2=C[C@H]1C2)C[C@@]1(CCCc2c1ccc(Cl)c2F)CO3 [compound 62, (1S,11′R,12′S,13′R,16′R,16a′R,18a′R,E)-6-chloro-5-fluoro-11′,12′-dimethyl-16′-(pyrimidin-2-ylmethoxy)-3,4,12′,13′,16′,16a′,17′,18′,18a′,19′-decahydro-1′H,2H,3′H,11′H-spiro[naphthalene-1,2′-[5,7]etheno[13,15]methanocyclobuta[i][1,4]oxazepino[3,4-f][1]thia[2,7]diazacyclohexadecin]-8′(9′H)-one 10′,10′-dioxide]	8.1 nM	9.3 nM	59 nM
C[C@@H]1[C@@H](C)S(=O)(=O)NC(=O)c2ccc3c(c2)N(C[C@@H]2CC[C@H]2[C@@H](OCc2nccn2C)C2=C[C@H]1C2)C[C@@]1(CCCc2c1ccc(Cl)c2F)CO3 [compound 63, (1S,11′R,12′S,13′R,16′R,16a′R,18a′R,E)-6-chloro-5-fluoro-11′,12′-dimethyl-16′-((1-methyl-1H-imidazol-2-yl)methoxy)-3,4,12′,13′,16′,16a′,17′,18′,18a′,19′-decahydro-1′H,2H,3′H, 11′H-spiro[naphthalene-1,2′-[5,7]etheno[13,15]methanocyclobuta[i][1,4]oxazepino[3,4-f][1]thia[2,7]diazacyclohexadecin]-8′(9′H)-one 10′,10′-dioxide]	13 nM	98 nM	88 nM

Further lines, with some results ahead:

IC50 [1]	IC50 (NCI-H929 cells)	Structure (SMILES)	IC50 (OPM-2 cells)
13 nM	1000 nM	CC(C)[C@@H]1C2=C[C@@H](C2)[C@H](C)[C@@H](C)S(=O)(=O)NC(=O)c2ccc3c(c2)N(C[C@@H]2CC[C@H]21)C[C@@]1(CCCc2c1ccc(Cl)c2F)CO3 [compound 55, (1S,11′R,12′S,13′R,16′S,16a′S,18a′R)-6-chloro-5-fluoro-16′-isopropyl-11′,12′-dimethyl-3,4,12′,13′,16′,16a′,17′,18′,18a′,19′-decahydro-1′H,2H,3′H,11′H-spiro[naphthalene-1,2′-[5,7]etheno[13,15]methanocyclobuta[i][1,4]oxazepino[3,4-f][1]thia[2,7]diazacyclohexadecin]-8′(9′H)-one 10′,10′-dioxide]	1010 nM
13 nM	43 nM	C[C@@H]1[C@@H](C)S(=O)(=O)NC(=O)c2ccc3c(c2)N(C[C@@H]2CC[C@H]2[C@@H](N(C)C)C2=C[C@H]1C2)C[C@@]1(CCCc2c1ccc(Cl)c2F)CO3 [compound 57, (1S,11′R,12′S,13′R,16′R,16a′R,18a′R)-6-chloro-16′-(dimethylamino)-5-fluoro-11′,12′-dimethyl-3,4,12′,13′,16′,16a′,17′,18′,18a′,19′-decahydro-1′H,2H,3′H,11′H-spiro[naphthalene-1,2′-[5,7]etheno[13,15]methanocyclobuta[i][1,4]oxazepino[3,4-f][1]thia[2,7]diazacyclohexadecin]-8′(9′H)-one 10′,10′-dioxide]	36 nM
19 nM	18 nM	COCCN[C@H]1C2=C[C@@H](C2)[C@H](C)[C@@H](C)S(=O)(=O)NC(=O)c2ccc3c(c2)N(C[C@@H]2CC[C@H]21)C[C@@]1(CCCc2c1ccc(Cl)c2F)CO3 [compound 58, (1S,11′R,12′S,13′R,16′R,16a′R,18a′R)-6-chloro-5-fluoro-16′-((2-methoxyethyl)amino)-11′,12′-dimethyl-3,4,12′,13′,16′,16a′,17′,18′,18a′,19′-decahydro-1′H,2H,3′H, 11′H-spiro[naphthalene-1,2′-[5,7]etheno[13,15]methanocyclobuta[i][1,4]oxazepino[3,4-f][1]thia[2,7]diazacyclohexadecin]-8′(9′H)-one 10′,10′-dioxide]	57 nM
15 nM	19 nM	COCCO[C@H]1C2=C[C@@H](C2)[C@H](C)[C@@H](C)S(=O)(=O)NC(=O)c2ccc3c(c2)N(C[C@@H]2CC[C@H]21)C[C@@]1(CCCc2c1ccc(Cl)c2F)CO3 [compound 60, (1S,11′R,12′S,13′R,16′R,16a′R,18a′R,E)-6-chloro-5-fluoro-16′-(2-methoxyethoxy)-11′,12′-dimethyl-3,4,12′,13′,16′,16a′,17′,18′,18a′,19′-decahydro-1′H,2H,3′H,11′H-spiro[naphthalene-1,2′-[5,7]etheno[13,15]methanocyclobuta[i][1,4]oxazepino[3,4-f][1]thia[2,7]diazacyclohexadecin]-8′(9′H)-one 10′,10′-dioxide]	66 nM

— patent US11498928B2, “Macrocyclic spiroethers as Mcl-1 inhibitors” (ASCENTAGE PHARMA (SUZHOU) CO., LTD., priority 2019, dated 2022)
